Test results: US6822146B2, “Sulfonylurea-tolerant sunflower line M7” (priority 2000, dated 2004)
Where two headings read alike, the source gives them in different places.

What was measured:
H89A × M4M11 = type: in vivo, sunflower; settings: variety G
From the text: (§1) To generate the hybrids C, D and E, the fourth generation self-pollinated maintainer mutant lines M4M12, M4M11 and M4M7 were chemically sterilized by applying at the bud “star” flower stage a small amount of gibberellic acid solution to sterilize the pollen according to the general method described in Sunflower Science Technology, J. F. Carter ed. (Number 19 in the series “Agronomy”) pp. 339-386. This treatment enables maintainer plants to behave as CMS inbred lines and allows the production of heterozygous resistant hybrids, with the herbicide resistant source coming from the female side. Such crosses allowed evaluating the sexual effect of the mutation source when introduced on the female side of a cross as described in crosses C, D and E versus the male side of a cross as described in crosses F, G and H. Labels I, J and K identify third generation CMS mutant lines crossed with fourth generation maintainer lines to maintain the highly heritable mutant trait in a male sterile homozygous resistant environment. One skilled in sunflower breeding art understands the meaning of such crosses.
(§2) A rating of 0% phytotoxicity means no crop injury.

[1] = test system: Hybrid control: H89A × RHA274; type: in vivo, sunflower; settings: variety A
From the text: as §1, §2

H89A × M4M7 = type: in vivo, sunflower; settings: variety H
From the text: as §1, §2

H89A × M4M12 = type: in vivo, sunflower; settings: variety F
From the text: as §1, §2

[2] = test system: Inbred line control: H89A; type: in vivo, sunflower; settings: variety B
From the text: as §1, §2

[3] = test system: mutants originating from M11 and M12; settings: tribenuron-methyl up to 60 g a.i./ha; others at Test G rates
From the text: This test involved sulfonylurea-resistant sunflower progeny BC2-M3M11 and BC2-M3M12, derived from M11 and M12, respectively. Also, a sulfonylurea-susceptible hybrid, H89A×RHA274, was included for comparison. Plants were sprayed with formulated herbicides at the 4-leaf stage. The efficacy of the treatments on the sunflowers was visually rated 4 weeks after application, using a scale where 0 means no control of the sunflowers, 85 means sufficient efficacy level to stop plants from flowering and propagating, and 100 means a complete destruction of the mutants.
Weed control in sugar beet requires 2-3 herbicide applications per season to efficiently control weeds in this slow growing crop.

GA-M4M12 × RHA274 = assay: Test A field trial, phytotoxicity, variety C; type: in vivo, sunflower
From the text: as §1, §2

GA-M4M11 × RHA274 = assay: Test A field trial, phytotoxicity, variety D; type: in vivo, sunflower
From the text: as §1, §2

BC2-M3M11 = assay: Test G control of volunteer sunflower, BC2-M3M11; type: in vivo; settings: rated 4 weeks after application, scale 0-100
[4] = test system: H89A × RHA274 (sulfonylurea-susceptible hybrid); assay: Test G control of volunteer sunflower, H89A × RHA274; type: in vivo; settings: rated 4 weeks after application, scale 0-100
BC3-M4M7 = assay: Test A field trial, phytotoxicity, variety K; type: in vivo, sunflower
From the text: as §1, §2

GA-M4M7 × RHA274 = assay: Test A field trial, phytotoxicity, variety E; type: in vivo, sunflower
From the text: as §1, §2

Orobanche cumana = assay: Test E control of Orobanche cumana in resistant sunflower hybrid; type: in vivo; settings: for relative efficacy in controlling Orobanche: Test E rates, metsulfuron-methyl compared with tribenuron-methyl
Procedure: The effect of the various treatments was evaluated 35 days after sowing. The sunflower roots were cleaned by washing in water, and the presence of Orobanche nodules was determined visually and by weighing root wet mass in comparison to check plants free of Orobanche infestation. […] The nodules caused by Orobanche increased root weight, and a correlation (r=0.7) was found between visual scores and weight measurements. Thus the weighing technique could be used to corroborate visual efficacy scorings. Orobanche emergence was also scored but found to be less useful to evaluate treatment efficiency at the evaluation timing of this test.
Based on the results from Test D, a modified protocol was developed to include three timings of post-emergence treatment. The hybrid BC4-M5M12 (female parent)×PHA155 restorer line (male parent) described in Test C was used in this test. Various herbicide programs were tested using three replications. […] Seed coatings of these formulated herbicides were applied to 6 kg of seeds in such amount that considering the distribution of the coated seeds in each pot, the herbicide active ingredient (a.i.) application rates per hectare were as indicated.
The treatments were applied similar to the methods described for Test D. Pre-emergence applications were broadcast only, not soil incorporated. For pre-emergence application, the pots were sprayed using the high rates of the herbicides two days after sowing the sunflower seeds. Post-emergence treatments were applied at the 4-6 leaf stage of sunflower (corresponding to early stage of Orobanche attachment; identified as “T1”), the 6-8 leaf stage of sunflower (corresponding to the mid stage of Orobanche attachment; nodules <5 mm diameter; identified as “T2”) and 8-12 leaf stage of sunflower (corresponding to late stage of Orobanche attachment; identified as “T3”). The mid-stage applications included the high as well as low application rates of each herbicide.
For comparison were also included in this test other acetolactate synthase-inhibiting herbicides reported in the literature as giving good weed control of Orobanche (L. García-Torres et al., Weed Research 1994, 34, 395-402; L. García-Torres et al., Weed Technology 1995, 9, 819-824; J. Hershenhorn et al., Weed Technology 1998, 12, 108-114).

BC3-M4M11 = assay: Test A field trial, phytotoxicity, variety J; type: in vivo, sunflower
From the text: as §1, §2

BC3-M4M12 = assay: Test A field trial, phytotoxicity, variety I; type: in vivo, sunflower
From the text: as §1, §2

BC2-M3M12 = assay: Test G control of volunteer sunflower, BC2-M3M12; type: in vivo; settings: rated 4 weeks after application, scale 0-100
[5] = 6 g a.i./ha post-emergence, without Citowet

## COC(=O)c1ccccc1S(=O)(=O)NC(=O)Nc1nc(C)nc(OC)n1 [Metsulfuron-methyl, metsulfuron-methyl]
H89A × M4M11; [5]
  Maximum Phytotoxicity: 6%
[1]; [5]
  Maximum Phytotoxicity: 100%
H89A × M4M7; [5]
  Maximum Phytotoxicity: 4%
H89A × M4M12; [5]
  Maximum Phytotoxicity: 4%
[2]; [5]
  Maximum Phytotoxicity: 100%
[3]
  resistance/tolerance of the mutants: to a lesser extent than with tribenuron-methyl
GA-M4M12 × RHA274; in vivo
  Maximum Phytotoxicity: 8%
GA-M4M11 × RHA274; in vivo
  Maximum Phytotoxicity: 7%
BC2-M3M11; 4 g a.i./ha
  Efficacy on BC2-M3M11: 8
[4]; 4 g a.i./ha
  Efficacy on H89A × RHA274: 100
BC3-M4M7; in vivo
  Maximum Phytotoxicity: 8%
GA-M4M7 × RHA274; in vivo
  Maximum Phytotoxicity: 0%
Orobanche cumana
  relative efficacy in controlling Orobanche: more efficacious in controlling Orobanche
Orobanche cumana; post-emergence 3 + 3 g a.i./ha at T1 + T3
  Control: 96%
Orobanche cumana; post-emergence 3 + 3 g a.i./ha at T1 + T3, listed as metsulfuron-methyl
  Control: excellent level of Orobanche control
Orobanche cumana; post-emergence 6 g a.i./ha at T2
  Control: 97%
Orobanche cumana; pre-emergence 3 + post-emergence 3 g a.i./ha at T2
  Control: 87%
Orobanche cumana; pre-emergence 6 g a.i./ha (r19)
  Control: 30%
BC3-M4M11; in vivo
  Maximum Phytotoxicity: 11%
BC3-M4M12; in vivo
  Maximum Phytotoxicity: 7%
BC2-M3M12; 4 g a.i./ha
  Efficacy on BC2-M3M12: 18

## COC(=O)c1ccccc1S(=O)(=O)NC(=O)N(C)c1nc(C)nc(OC)n1 [Tribenuron-methyl, tribenuron-methyl]
H89A × M4M11; 22.5 g a.i./ha post-emergence
  Maximum Phytotoxicity: 3%
[1]; 22.5 g a.i./ha post-emergence
  Maximum Phytotoxicity: 100%
H89A × M4M7; 22.5 g a.i./ha post-emergence
  Maximum Phytotoxicity: 0%
H89A × M4M12; 22.5 g a.i./ha post-emergence
  Maximum Phytotoxicity: 0%
[2]; 22.5 g a.i./ha post-emergence
  Maximum Phytotoxicity: 100%
[3]
  resistance/tolerance of the mutants: excellent to very good level of resistance
GA-M4M12 × RHA274; in vivo
  Maximum Phytotoxicity: 0%
GA-M4M11 × RHA274; in vivo
  Maximum Phytotoxicity: 6%
BC2-M3M11; 10 g a.i./ha
  Efficacy on BC2-M3M11: 0
BC2-M3M11; 20 g a.i./ha
  Efficacy on BC2-M3M11: 0
BC2-M3M11; 40 g a.i./ha
  Efficacy on BC2-M3M11: 3
BC2-M3M11; 60 g a.i./ha
  Efficacy on BC2-M3M11: 10
[4]; 10 g a.i./ha, 4-leaf stage
  Efficacy on H89A × RHA274: 100
[4]; 20 g a.i./ha
  Efficacy on H89A × RHA274: 100
[4]; 40 g a.i./ha
  Efficacy on H89A × RHA274: 100
[4]; 60 g a.i./ha
  Efficacy on H89A × RHA274: 100
BC3-M4M7; in vivo
  Maximum Phytotoxicity: 4%
GA-M4M7 × RHA274; in vivo
  Maximum Phytotoxicity: 2%
Orobanche cumana; 22.5 g a.i./ha printed in pre-emergence column (first such row, r7), host BC4-M5M12 × PHA155
  Control: 70%
Orobanche cumana; post-emergence 11.25 + 11.25 g a.i./ha at T1 + T3
  Control: 90%
Orobanche cumana; post-emergence 22.5 g a.i./ha at T2
  Control: 75%
Orobanche cumana; pre-emergence 11.25 + post-emergence 11.25 g a.i./ha at T2
  Control: 78%
Orobanche cumana; pre-emergence 22.5 g a.i./ha (r18)
  Control: 0%
Orobanche cumana; seed coating 11.25 + post-emergence 11.25 g a.i./ha at T2
  Control: 88%
BC3-M4M11; in vivo
  Maximum Phytotoxicity: 0%
BC3-M4M12; in vivo
  Maximum Phytotoxicity: 4%
BC2-M3M12; 10 g a.i./ha
  Efficacy on BC2-M3M12: 0
BC2-M3M12; 20 g a.i./ha
  Efficacy on BC2-M3M12: 0
BC2-M3M12; 40 g a.i./ha
  Efficacy on BC2-M3M12: 0
BC2-M3M12; 60 g a.i./ha
  Efficacy on BC2-M3M12: 14

## COC(=O)c1cccc(C)c1S(=O)(=O)NC(=O)Nc1nc(OCC(F)(F)F)nc(N(C)C)n1 [Triflusulfuron-methyl, triflusulfuron-methyl]
H89A × M4M11; 20 g a.i./ha post-emergence
  Maximum Phytotoxicity: 15%
H89A × M4M11; 40 g a.i./ha post-emergence
  Maximum Phytotoxicity: 36%
[1]; 20 g a.i./ha post-emergence
  Maximum Phytotoxicity: 100%
[1]; 40 g a.i./ha post-emergence
  Maximum Phytotoxicity: 100%
H89A × M4M7; 20 g a.i./ha post-emergence
  Maximum Phytotoxicity: 10%
H89A × M4M7; 40 g a.i./ha post-emergence
  Maximum Phytotoxicity: 33%
H89A × M4M12; 20 g a.i./ha post-emergence
  Maximum Phytotoxicity: 16%
H89A × M4M12; 40 g a.i./ha post-emergence
  Maximum Phytotoxicity: 33%
[2]; 20 g a.i./ha post-emergence
  Maximum Phytotoxicity: 100%
[2]; 40 g a.i./ha post-emergence
  Maximum Phytotoxicity: 100%
[3]
  resistance/tolerance of the mutants: to a lesser extent than with tribenuron-methyl
GA-M4M12 × RHA274; variety C, 20 g a.i./ha post-emergence
  Maximum Phytotoxicity: 19%
GA-M4M12 × RHA274; variety C, 40 g a.i./ha post-emergence
  Maximum Phytotoxicity: 38%
GA-M4M11 × RHA274; variety D, 20 g a.i./ha post-emergence
  Maximum Phytotoxicity: 19%
GA-M4M11 × RHA274; variety D, 40 g a.i./ha post-emergence
  Maximum Phytotoxicity: 40%
BC2-M3M11; 15 g a.i./ha
  Efficacy on BC2-M3M11: 13
[4]; 15 g a.i./ha
  Efficacy on H89A × RHA274: 82
BC3-M4M7; variety K, 20 g a.i./ha post-emergence
  Maximum Phytotoxicity: 8%
BC3-M4M7; variety K, 40 g a.i./ha post-emergence
  Maximum Phytotoxicity: 10%
GA-M4M7 × RHA274; variety E, 20 g a.i./ha post-emergence
  Maximum Phytotoxicity: 20%
GA-M4M7 × RHA274; variety E, 40 g a.i./ha post-emergence
  Maximum Phytotoxicity: 38%
Orobanche cumana
  relative efficacy in controlling Orobanche: less efficacious in controlling Orobanche
Orobanche cumana; post-emergence 18.75 g a.i./ha at T2
  Control: 75%
BC3-M4M11; variety J, 20 g a.i./ha post-emergence
  Maximum Phytotoxicity: 6%
BC3-M4M11; variety J, 40 g a.i./ha post-emergence
  Maximum Phytotoxicity: 14%
BC3-M4M12; variety I, 20 g a.i./ha post-emergence
  Maximum Phytotoxicity: 4%
BC3-M4M12; variety I, 40 g a.i./ha post-emergence
  Maximum Phytotoxicity: 13%
BC2-M3M12; 15 g a.i./ha
  Efficacy on BC2-M3M12: 8
